This is an account of results in patent US8263605B2, “Modulators of muscarinic receptors” (Vertex Pharmaceutical Incorporated, priority 2006, dated 2012).

As usually defined, the Emax is the size of the effect at its maximum, as opposed to the concentration needed.

For one assay, the target named is T1, M1 muscarinic receptor (Homo sapiens, UniProt P11229).
T1 construct: expressed in transfected cells; host or cells: CHO (M1-CHO)
T1 sequence (P11229 1-460): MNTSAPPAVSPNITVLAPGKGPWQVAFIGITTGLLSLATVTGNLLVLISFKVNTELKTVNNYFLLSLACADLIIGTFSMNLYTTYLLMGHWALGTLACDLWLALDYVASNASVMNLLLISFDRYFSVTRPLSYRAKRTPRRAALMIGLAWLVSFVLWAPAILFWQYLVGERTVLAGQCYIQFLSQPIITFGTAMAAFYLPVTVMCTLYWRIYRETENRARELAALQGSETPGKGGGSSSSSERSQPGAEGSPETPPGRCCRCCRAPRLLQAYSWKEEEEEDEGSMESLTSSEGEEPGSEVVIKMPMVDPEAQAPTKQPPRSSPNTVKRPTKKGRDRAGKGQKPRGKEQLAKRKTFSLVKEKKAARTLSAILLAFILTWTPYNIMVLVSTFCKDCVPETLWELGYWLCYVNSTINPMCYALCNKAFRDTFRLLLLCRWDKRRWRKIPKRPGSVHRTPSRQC
The assay can be described thus: Functional mobilization of intracellular calcium (FLIPR), M1-CHO cells. Type of assay: cell-based. The conditions noted are these: for Emax: 100% efficacy is the maximum response obtained with the Carbachol control; for M1 Activity: CHO cells expressing M1, calcium mobilization. The method in brief:
(§1)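 Recombinant CHO cells loaded with Fluo-3 AM or Calcium 3 dye; fluorescence recorded 60 s on FLIPR in pH 7.4 buffer with 1 mM probenecid, 0.5% DMSO. Agonist mode: compound alone; antagonist mode: 15 min preincubation (or co-application) then carbachol at EC80. Efficacy relative to maximal carbachol response.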

The target in another assay is T2, M4 muscarinic receptor (Homo sapiens, UniProt P08173).
T2 construct: expressed in transfected cells; host or cells: CHO (M4-CHO)
T2 sequence (P08173 1-479): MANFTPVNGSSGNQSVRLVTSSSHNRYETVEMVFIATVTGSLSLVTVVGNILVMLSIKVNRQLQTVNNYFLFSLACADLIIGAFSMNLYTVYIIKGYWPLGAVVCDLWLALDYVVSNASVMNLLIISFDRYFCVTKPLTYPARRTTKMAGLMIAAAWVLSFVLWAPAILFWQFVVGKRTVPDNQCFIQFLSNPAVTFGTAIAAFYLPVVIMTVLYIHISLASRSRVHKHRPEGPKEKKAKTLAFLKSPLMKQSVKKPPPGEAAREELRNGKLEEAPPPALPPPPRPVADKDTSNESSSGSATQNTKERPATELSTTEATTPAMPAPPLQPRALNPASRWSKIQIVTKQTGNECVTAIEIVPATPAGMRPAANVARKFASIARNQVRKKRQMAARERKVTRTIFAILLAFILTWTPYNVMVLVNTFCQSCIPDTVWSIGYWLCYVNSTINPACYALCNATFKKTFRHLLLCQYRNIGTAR
Briefly: Functional mobilization of intracellular calcium (FLIPR), M4-CHO cells. The class given is cell-based. The conditions noted are these: for Emax: 100% efficacy is the maximum response obtained with the Carbachol control; for M4 Activity: CHO cells expressing M4, calcium mobilization. The method, boiled down:
as §1
A general note: A change in cytosolic calcium serves as a functional read-out for many receptors and channels.

Take `CC#CCOC(=O)N1CCC(N2CCC3(CCN(C(=O)N(C)C)c4ccccc43)CC2)CC1` [Compound No. 5, but-2-ynyl 4-(1′-(dimethylcarbamoyl)-2′,3′-dihydro-1′H-spiro[piperidine-4,4′-quinoline]-1-yl)piperidine-1-carboxylate]: at M1 muscarinic receptor, the Emax lay within 25 to 100% and the “M1 Activity” value is listed as “+++ (activity was measured to be less than 2.0 μM)”. In addition, at M4 muscarinic receptor, the Emax lay within 25 to 100% and the “M4 Activity” value is listed as “+++ (activity was measured to be less than 2.0 μM)”.
As for `CN(C)C(=O)N1CC2(CCN(C3CCN(c4cncc(-c5ccccc5O)n4)CC3)CC2)c2ccccc21` [compound 113], on M1 muscarinic receptor, the Emax lay in the range of 25 to 100% and the “M1 Activity” value was “+++ (activity was measured to be less than 2.0 μM)”. At M4 muscarinic receptor, the Emax is below 25% and the “M4 Activity” value is on record as “+ (activity was measured to be greater than 10.0 μM)”.
The corresponding values for `CCOC(=O)N1CCCC(N2CCC3(CC2)CN(C(=O)N(C)C)c2ccccc23)CC1` (centres unmarked) [compound 68] are 25 to 100%, “+++ (activity was measured to be less than 2.0 μM)”, above 100% and “+++ (activity was measured to be less than 2.0 μM)”.
The corresponding values for `CN(C)C(=O)N1CC2(CCN(C3(C)CCN(c4cnccn4)CC3)CC2)c2ccccc21` [compound 82] are 25 to 100%, “++ (activity was measured to be from 2.0 μM to 10.0 μM)”, 25 to 100% and “+++ (activity was measured to be less than 2.0 μM)”.
With `CN(C)C(=O)N1CC2(CCN(C3CCN(C(=O)OCC(F)F)CC3)CC2)c2ccccc21` [compound 42], on M1 muscarinic receptor, the Emax was in the range of 25 to 100% and the “M1 Activity” value is “+++ (activity was measured to be less than 2.0 μM)”. Moreover, at M4 muscarinic receptor, the Emax is 25 to 100% and the “M4 Activity” value is on record as “+++ (activity was measured to be less than 2.0 μM)”.
Take `CN(C)C(=O)N1CCC2(CCN(C3CCN(c4nncs4)CC3)CC2)c2ccccc21` [compound 21]: on M1 muscarinic receptor, the Emax lay within 25 to 100% and the “M1 Activity” value is “++ (activity was measured to be from 2.0 μM to 10.0 μM)”. At M4 muscarinic receptor, the Emax was below 25% and the “M4 Activity” value is “++ (activity was measured to be from 2.0 μM to 10.0 μM)”.
As to `CN(C)C(=O)N1CC2(CCN(C3CCN(c4nc5ccccc5o4)CC3)CC2)c2ccccc21` [compound 118], on M1 muscarinic receptor, the Emax lay within 25 to 100% and the “M1 Activity” value was “++ (activity was measured to be from 2.0 μM to 10.0 μM)”. Also, on M4 muscarinic receptor, the Emax was below 25% and the “M4 Activity” value is “++ (activity was measured to be from 2.0 μM to 10.0 μM)”.
As to `CCc1nsc(N2C3CCC2CC(N2CCC4(CCN(C(=O)N(C)C)c5ccccc54)CC2)C3)n1` (centres unmarked) [Compound No. 32, 1-(8-(3-ethyl-1,2,4-thiadiazol-5-yl)-8-azabicyclo[3.2.1]octan-3-yl)-N,N-dimethyl-2′,3′-dihydro-1′ H-spiro[piperidine-4,4′-quinoline]-1′-carboxamide], at M1 muscarinic receptor, the Emax lay within 25 to 100% and the “M1 Activity” value is on record as “+++ (activity was measured to be less than 2.0 μM)”. Besides, on M4 muscarinic receptor, the Emax was 25 to 100% and the “M4 Activity” value was “+++ (activity was measured to be less than 2.0 μM)”.
With `CC(=O)N1CCC2(CCN(C3CCN(c4ncc(C)s4)CC3)CC2)c2ccccc21` [compound 37], on M1 muscarinic receptor, the Emax is below 25% and the “M1 Activity” value is listed as “+ (activity was measured to be greater than 10.0 μM)”. At M4 muscarinic receptor, the Emax was below 25% and the “M4 Activity” value is listed as “+ (activity was measured to be greater than 10.0 μM)”.
`CN(C)C(=O)N1CC2(CCN(C3CCC(c4ncns4)CC3)CC2)c2ccccc21` (centres unmarked) [compound 112]: on M1 muscarinic receptor, the Emax is below 25% and the “M1 Activity” value is given as “++ (activity was measured to be from 2.0 μM to 10.0 μM)”. Further, at M4 muscarinic receptor, the maximum response (Emax) is below 25% and the “M4 Activity” value is given as “+ (activity was measured to be greater than 10.0 μM)”.
Turning to `Cc1nsc(N2CC[C@H](CN3CCC4(CC3)CN(C(=O)N(C)C)c3ccccc34)C2)n1` [compound 83], at M1 muscarinic receptor, the maximal effect (Emax) lay in the range of 25 to 100% and the “M1 Activity” value is recorded as “++ (activity was measured to be from 2.0 μM to 10.0 μM)”. Besides, on M4 muscarinic receptor, the Emax is 25 to 100% and the “M4 Activity” value was “+++ (activity was measured to be less than 2.0 μM)”.
As to `C#CCOC(=O)N1CCCC(N2CCC3(CC2)CN(C(=O)N(C)C)c2ccccc23)CC1` (centres unmarked) [compound 104], at M1 muscarinic receptor, the Emax was above 100% and the “M1 Activity” value is “+++ (activity was measured to be less than 2.0 μM)”. Besides, on M4 muscarinic receptor, the Emax is above 100% and the “M4 Activity” value was “+++ (activity was measured to be less than 2.0 μM)”.
With `C#CCOC(=O)N1C2CCC1CC(N1CCC3(CC1)CN(C(=O)N(C)C)c1ccccc13)C2` (centres unmarked) [compound 94], at M1 muscarinic receptor, the Emax lay in the range of 25 to 100% and the “M1 Activity” value is reported as “+++ (activity was measured to be less than 2.0 μM)”. At M4 muscarinic receptor, the Emax was in the range of 25 to 100% and the “M4 Activity” value is “+++ (activity was measured to be less than 2.0 μM)”.
As for `Cc1nsc(N2CCC(N3CCC4(CCN(C(=O)N(C)C)c5ccccc54)CC3)CC2)n1` [compound 6], on M1 muscarinic receptor, the Emax is 25 to 100% and the “M1 Activity” value was “+++ (activity was measured to be less than 2.0 μM)”. For the same molecule, on M4 muscarinic receptor, the Emax is 25 to 100% and the “M4 Activity” value is “+++ (activity was measured to be less than 2.0 μM)”.
`CC(C)OC(=O)N1C2CCC1CC(N1CCC3(CC1)CN(C(=O)N(C)C)c1ccccc13)C2` (centres unmarked) [compound 48]: on M1 muscarinic receptor, the Emax is 25 to 100% and the “M1 Activity” value is on record as “+++ (activity was measured to be less than 2.0 μM)”. In addition, on M4 muscarinic receptor, the Emax is 25 to 100% and the “M4 Activity” value is recorded as “+++ (activity was measured to be less than 2.0 μM)”.
In the case of `CC(=O)N1CCC2(CCN(C3CCN(c4nncs4)CC3)CC2)c2ccccc21` [compound 23], on M1 muscarinic receptor, the Emax lay within 25 to 100% and the “M1 Activity” value was “++ (activity was measured to be from 2.0 μM to 10.0 μM)”. On M4 muscarinic receptor, the Emax lay within 25 to 100% and the “M4 Activity” value is listed as “++ (activity was measured to be from 2.0 μM to 10.0 μM)”.
Turning to `CN(C)C(=O)N1CC2(CCN(C3CCN(c4nc5ccccc5s4)CC3)CC2)c2ccccc21` [compound 117], at M1 muscarinic receptor, the Emax was below 25% and the “M1 Activity” value was “+ (activity was measured to be greater than 10.0 μM)”. For the same molecule, on M4 muscarinic receptor, the Emax was below 25% and the “M4 Activity” value is given as “++ (activity was measured to be from 2.0 μM to 10.0 μM)”.
With `CC(C)OC(=O)N1CCCC(N2CCC3(CC2)CN(C(=O)N(C)C)c2ccccc23)CC1` (centres unmarked) [compound 70], on M1 muscarinic receptor, the Emax was in the range of 25 to 100% and the “M1 Activity” value is given as “++ (activity was measured to be from 2.0 μM to 10.0 μM)”. For the same molecule, on M4 muscarinic receptor, the Emax was in the range of 25 to 100% and the “M4 Activity” value is given as “+++ (activity was measured to be less than 2.0 μM)”.
As to `CC(=O)N1CCC2(CCN(C3CCNCC3)CC2)c2ccccc21` [compound 34], on M1 muscarinic receptor, the Emax is below 25% and the “M1 Activity” value is “+ (activity was measured to be greater than 10.0 μM)”. Also, on M4 muscarinic receptor, the Emax is below 25% and the “M4 Activity” value was “++ (activity was measured to be from 2.0 μM to 10.0 μM)”.
In the case of `CCOC(=O)N1CCCC(N2CCC3(CC2)CN(C(=O)N(C)C)c2ccccc23)CCC1` [compound 107], at M1 muscarinic receptor, the Emax was above 100% and the “M1 Activity” value is given as “+++ (activity was measured to be less than 2.0 μM)”. Besides, on M4 muscarinic receptor, the Emax is above 100% and the “M4 Activity” value is recorded as “+++ (activity was measured to be less than 2.0 μM)”.
